Values joined by “and” are separate entries in the source; they are usually repeats but may differ in a detail not shown here. Equal entries are not always repeated. Square brackets hold non-standard residues; d marks the D form. Ends that are not written are not given here. Oic = O=C(O)[C@@H]1C[C@@H]2CCCC[C@@H]2N1; Igl = N[C@H](C(=O)O)C1Cc2ccccc2C1; Hyp = O=C(O)[C@@H]1C[C@@H](O)CN1; 2Thi = N[C@@H](Cc1cccs1)C(=O)O
Legend:
[1] = tested on: platelets in platelet-rich plasma; assay: γ-thrombin-induced platelet aggregation in platelet-rich plasma; format: cell-based, human; conditions: minimal concentration that blocked γ-thrombin-induced platelet aggregation in platelet-rich plasma
Experimental: Fresh whole blood was collected and mixed with 0.013 M sodium citrate and platelet-rich plasma was prepared according to the method of Meloni et al., J. Biol. Chem. 266, 6786 (1991). Platelet-rich plasma with a normalized platelet count between 2–2.5×10^8 platelets/ml was added to a cuvette of an aggregometer (Chronlog Corp., Havertown, Pa.), standardized using the protocol of Meloni et al., supra. Peptides to be examined were added to the cuvette and the mixture stabilized for a few moments. Once the baseline was stabilized, γ-thrombin (10–70 nM) (Haematologic Technologies, Essex Junction, Vt.) was added to determine the minimal concentration of the agonist necessary to achieve full platelet aggregation. All investigations with peptides were performed using threshold concentrations of γ-thrombin. Aggregation was allowed to proceed for 5 minutes before stopping. When ADP-induced platelet aggregation studies were performed, 1–5 μM ADP (Sigma) was added to the cuvette containing platelet-rich plasma.

[2] = tested on: normal human lung fibroblasts (NHLF); assay: α-thrombin-induced calcium mobilization in fibroblasts; format: cell-based; conditions: 0.1 mM peptide; α-thrombin-induced calcium mobilization in fibroblasts
Experimental: The second assay developed to assess peptides from the combinatorial libraries uses inhibition of α-thrombin-induced calcium mobilization in fibroblasts. Normal human lung fibroblasts (NHLF) were purchased from Clonetics, San Diego, Calif., an affiliate of Bio-Wittaker, Walkersville, Md. The cytoplasmic free Ca^2+ concentration ([Ca^2+]i) was measured using the fluorescent Ca^2+ indicator fura-2 (Molecular Probes, Inc., Eugene, Oreg.). Suspension of fibroblasts in Hepes-Tyrode's buffer were loaded with fura-2 by incubation at 37° C. with 2 μM fura-2/acetoxymethyl ester for 45 minutes according to the method of Rasmussen et al., J. Biol. Chem. 268, 14322 (1993). The labeled fibroblasts were separated from excess probe by washing by centrifugation at 1000 rpm (180×g). Aliquots of the labeled fibroblasts were transferred into a quartz cuvette with a magnetic stirrer, which was then placed in a thermostatically controlled chamber at 37° C. in a fluorescence spectrophotometer (Perkin-Elmer LS50B spectrofluorometer, Chicago, Ill.). Reagents, test peptide, and α-thrombin (0.25–2 nM), were sequentially added directly to the cuvette. The excitation wavelengths varied between 340 and 380 nm. Fluorescence was measured by recording emitted light at 510 nm as reported by Fisher et al., Mol Pharm. 35, 195 (1989). The minimum emission was determined on a solubilized fibroblast sample in the presence of 10 mM EDTA; maximum emission was determined on the same sample with 10 mM Ca^2+ added. The intrafibroblast free Ca^2+ concentration was calculated by the method of Grykiewicz et al., J. Biol. Chem. 260, 3440 (1985). […] The KD for fura-2 was assumed to be 224 nM. Rmax and Rmin are the maximum and minimum fluorescence ratios measured at the end of the experiment, respectively; Sf2 and Sb2 are the fluorescence values at 380 nm in the absence and presence of saturating [Ca^2+], respectively. The reaction was monitored for 3–5 minutes.

[3] = tested on: normal human citrated plasma; assay: activated partial thromboplastin time (APTT); format: biochemical; conditions: peptide at the concentration that inhibits platelet aggregation
Experimental: (§1) The influence of the various peptide formulations used in the present invention on established coagulation-based assays was determined. The activated partial thromboplastin time (APTT) is performed by mixing 0.05 ml normal human citrated plasma with 0.05 ml activated partial thromboplastin reagent purchased from Organon Teknika, Research Triangle Park, N.C. in the absence or presence of a peptide inhibitor. After incubation for 5 min at 37° C., the mixture is recalcified with 0.05 ml of 30 mM calcium chloride and the time to clot formation is measured in an Amelung KC4A instrument (Sigma Chemical Corp, St. Louis, Mo.) (Hasan et al. Thrombosis and Haemostasis. 82, 1182–1187 (1999)). The prothrombin time (PT) is performed by mixing 0.05 ml normal human citrated plasma with 0.05 ml Simplastin (Organon Teknika, Research Triangle Park, N.C.) followed by incubation for 3 min at 37° C. in the absence or presence of a peptide inhibitor. At the addition of 0.05 ml of 30 mM calcium chloride, the time to clot formation is measured in an KC4A instrument (Sigma Chemical Corp, St. Louis, Mo.) (Hasan et al. Thrombosis and Haemostasis. 82, 1182–1187 (1999)). The thrombin clotting time (TCT) is performed by adding 0.1 ml normal human citrated plasma in the absence or presence of a peptide inhibitor and 0.05 ml of a α-thrombin solution such that the final concentration of the thrombin in the entire mixture was 1 nM. Upon addition of the thrombin, the time to clot formation is measured in an KC4A instrument (Sigma Chemical Corp, St. Louis, Mo.). In FIG. 5, peptide TH146 produces a significant prolongation (p<0.05) of the activated partial thromboplastin time at 15 μM, of the prothrombin time at 60 μM, and the thrombin clotting time at 15 μM. In FIG. 6, peptide MAP4-TH146 produced a significant prolongation (p<0.05) of the activated partial thromboplastin time at 0.195 μM, of the prothrombin time at 3.125 μM, and the thrombin clotting time at 0.39 μM.

[4] = tested on: normal human citrated plasma; assay: prothrombin time (PT); format: biochemical; conditions: peptide at the concentration that inhibits platelet aggregation
Experimental: as §1

[5] = tested on: normal human citrated plasma; assay: thrombin clotting time (TCT); format: biochemical; conditions: peptide at the concentration that inhibits platelet aggregation
Experimental: as §1

[6] = molecular target: T1, recombinant protease activated receptor 1 extracellular domain (rPAR1EC) (Homo sapiens, UniProt P25116); assay: Inhibition of RPPGF-biotin binding to rPAR1EC; conditions: 5 mM peptide, 50 μM RPPGF-biotin (FIG. 7); listed in decreasing order
T1 construct: A portion of the extracellular domain of human PAR1 (Ala^26-Ser^99) (rPAR1EC) was expressed in Escherichia coli; His10-DDDDK (pET19b) (N); made in house; host or cells: E. coli BL21(DE3), pET19b
T1 sequence (P25116 26-99): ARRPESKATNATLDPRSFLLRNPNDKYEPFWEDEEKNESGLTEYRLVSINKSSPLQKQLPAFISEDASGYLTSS

[7] = molecular target: thrombin (Homo sapiens, UniProt P00734); conditions: read-out: Ki (direct inhibitor of thrombin); cited from earlier work
[8] = molecular target: recombinant protease activated receptor 1 extracellular domain (rPAR1EC), human PAR1 Ala26-Ser99, His10-DDDDK fusion (human) (UniProt P25116); assay: cell-based or functional assay
[9] = molecular target: α-thrombin (Homo sapiens, UniProt P00734); assay: cell-based or functional assay
[10] = tested on: MAP4-RPPGF (β-Ala-Lys-2Lys-4(Arg-Pro-Pro-Gly-Phe))
[11] = tested on: MAP4-rOicPGF (β-Ala-Lys-2Lys-4(D-Arg-Oic-Pro-Gly-Phe))
[12] = tested on: T2, RPPGF (Arg-Pro-Pro-Gly-Phe, SEQ ID NO:4)
T2 sequence: RPPGF

[13] = tested on: PC-3 cells; assay: Thrombin-induced motility of prostate cancer cells (Boyden chamber); format: cell-based; conditions: 10 μM; 2 nM α-thrombin
Experimental: Motility assays are performed with a modified Boyden chamber (tissue culture-treated, 6.5 mm diameter, 10 μm thickness, 8 μm pores). In the motility assays, 2.5×10^4 cells are plated in the top chamber of non-coated polyethylene teraphthalate (PET) membranes (24-well insert, pore size […]; Becton Dickinson). […] RPMI 10% fetal bovine serum is used as a chemoattractant in the lower chamber. […] The cells that transverse the membranes are stained with Dip-Quick (Jorgensen Laboratories, Loveland, Colo.). Cells in five random fields of view at 200× are counted and expressed as the average number of cells/field of view. […]

[14] = molecular target: T3, recombinant protease activated receptor 1 extracellular domain (rPAR1EC), human PAR1 Ala26-Ser99, His10-DDDDK fusion (human), P25116; assay: cell-based or functional assay
T3 chain: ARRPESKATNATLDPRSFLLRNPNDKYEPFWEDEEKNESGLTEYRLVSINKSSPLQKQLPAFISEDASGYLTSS

[15] = molecular target: human α-thrombin (human), P00734; assay: cell-based or functional assay

## D-Arg-Idg-Tic-Gly-Phe [rIdgTicGF]
[1]
  Concentration of Peptide [mM] That Gives 100% Inhibition: 0.1 mM
[2]
  Ca^2^+ % Inhibition At 0.1 mM Peptide: 58.44%
[3]
  APTT (Fold Prolongation over RPPGF): 1.0 Fold
[4]
  PT (Fold Prolongation over RPPGF): 1.1 Fold
[5]
  TCT (Fold Prolongation over RPPGF): 1.2 Fold

## D-Arg-Oic-Pro-Gly-Idg ([dR][Oic]PG[Igl]-NH2; N-terminus assumed; SMILES N=C(N)NCCC[C@@H](N)C(=O)N1[C@H](C(=O)N2CCC[C@H]2C(=O)NCC(=O)N[C@H](C(N)=O)C2Cc3ccccc3C2)C[C@@H]2CCCC[C@@H]21) [rOicPGIdg]
[1]
  Concentration of Peptide [mM] That Gives 100% Inhibition: 0.129 mM
[2]
  Ca^2^+ % Inhibition At 0.1 mM Peptide: 36.2%
[3]
  APTT (Fold Prolongation over RPPGF): 1.1 Fold
[4]
  PT (Fold Prolongation over RPPGF): 1.1 Fold
[5]
  TCT (Fold Prolongation over RPPGF): 1.5 Fold
[6]
  blocking of RPPGF-biotin binding to rPAR1EC by peptides: blocked

## RPPGFSPFR [Bradykinin, Arg-Pro-Pro-Gly-Phe-Ser-Pro-Phe-Arg]
[7]
  Ki: 170 to 326 µM

## MAP4-rOicPGF (β-Ala-Lys-2Lys-4(D-Arg-Oic-Pro-Gly-Phe)) (peptide)
[8]
  inhibition of thrombocytin-induced cleavage of recombinant extracellular domain of human PAR1 (SDS-PAGE): 0.2 mM
[9]
  concentration giving significant prolongation (p<0.05) of the APTT of normal human plasma: 0.195 µM
  concentration giving significant prolongation (p<0.05) of the PT of normal human plasma: 3.12 µM
  concentration giving significant prolongation (p<0.05) of the TCT of normal human plasma: 0.39 µM

## D-Arg-Oic-Hyp-Gly-Idg [rOicHypGIdg]
[1]
  Concentration of Peptide [mM] That Gives 100% Inhibition: 0.157 mM
[2]
  Ca^2^+ % Inhibition At 0.1 mM Peptide: 36.7%
[3]
  APTT (Fold Prolongation over RPPGF): 1.1 Fold
[4]
  PT (Fold Prolongation over RPPGF): 1.1 Fold
[5]
  TCT (Fold Prolongation over RPPGF): 1.7 Fold

## D-Arg-Oic-Hyp-Gly-Idg [TH37]
[6]
  blocking of RPPGF-biotin binding to rPAR1EC by peptides: blocked

## thrombocytin
[10]
  thrombocytin (16.7 nM) hydrolysis of 1 mM H-D-Phe-Pip-Arg-paranitroanilide in the presence of 1 mM MAP4-RPPGF: RPPGF (SEQ ID NO:4) or MAP4-RPPGF inhibits the ability of these enzymes to hydrolyze their substrates
[11]
  thrombocytin (16.7 nM) hydrolysis of 1 mM H-D-Phe-Pip-Arg-paranitroanilide (S2238), 0-1.0 mM MAP4-TH146: MAP4-TH146 inhibits these enzymes' ability to hydrolyze their substrates
[12]
  thrombocytin (16.7 nM) hydrolysis of 1 mM H-D-Phe-Pip-Arg-paranitroanilide in the presence of 2 mM RPPGF: RPPGF (SEQ ID NO:4) or MAP4-RPPGF inhibits the ability of these enzymes to hydrolyze their substrates

## MAP4-RPPGF (β-Ala-Lys-2Lys-4(Arg-Pro-Pro-Gly-Phe)) (peptide)
[8]
  inhibition of thrombocytin cleavage of PAR1 (rPAR1EC, SDS-PAGE): 0.2 mM and 0.5 mM

## [dR][Oic][Hyp]G[2Thi] [rOicHypGThi]
[1]
  Concentration of Peptide [mM] That Gives 100% Inhibition: 0.157 mM
[2]
  Ca^2^+ % Inhibition At 0.1 mM Peptide: 38%
[3]
  APTT (Fold Prolongation over RPPGF): 1.1 Fold
[4]
  PT (Fold Prolongation over RPPGF): 1.1 Fold
[5]
  TCT (Fold Prolongation over RPPGF): 1.3 Fold

## D-Arg-Oic-Oic-Gly-Idg [rOicOicGIdg]
[1]
  Concentration of Peptide [mM] That Gives 100% Inhibition: 0.257 mM
[2]
  Ca^2^+ % Inhibition At 0.1 mM Peptide: 28.1%
[3]
  APTT (Fold Prolongation over RPPGF): 1.1 Fold
[4]
  PT (Fold Prolongation over RPPGF): 1.1 Fold
[5]
  TCT (Fold Prolongation over RPPGF): 1.1 Fold

## [dR][Oic][Oic]G[2Thi] [rOicOicGThi]
[1]
  Concentration of Peptide [mM] That Gives 100% Inhibition: 0.271 mM
[2]
  Ca^2^+ % Inhibition At 0.1 mM Peptide: 18.2%
[3]
  APTT (Fold Prolongation over RPPGF): 1.2 Fold
[4]
  PT (Fold Prolongation over RPPGF): 1.1 Fold
[5]
  TCT (Fold Prolongation over RPPGF): 1.1 Fold

## hirudin [reference compound]
[13]
  effect on thrombin-induced PC-3 cell motility: block

B1: RPPGF (Arg-Pro-Pro-Gly-Phe, SEQ ID NO:4) (peptide)
peptide: RPPGF
modifications: not checked
[14]
  inhibition of thrombocytin cleavage of recombinant human PAR1 extracellular domain (SDS-PAGE): 0.5 mM and 1 mM

B2: rOicPGF (D-Arg-Oic-Pro-Gly-Phe) (peptide)
peptide: [dR][Oic]PGF
[15]
  concentration giving significant prolongation (p<0.05) of the activated partial thromboplastin time: 15 µM
  concentration giving significant prolongation (p<0.05) of the prothrombin time: 60 µM
  concentration giving significant prolongation (p<0.05) of the thrombin clotting time: 15 µM
  concentration giving significant prolongation of the APTT of normal human plasma: 3.7 µM
  concentration giving significant prolongation of the PT of normal human plasma: 30 µM
  concentration giving significant prolongation of the TCT of normal human plasma: 3.7 µM

Reference: patent publication US7074765B2, “Synthetic peptide analogs of Arg-Pro-Pro-Gly-Phe as selective inhibitors of thrombin and thrombin activation of protease activated receptors 1 and 4” (The Regents of the University of Michigan, priority 2003, dated 2006)
